# According to US10239832B2, “N-(1-hydroxy-3-(pyrrolidinyl)propan-2-yl)pyrrolidine-3-carboxamide derivatives as glucosylceramide synthase inhibitors” (BIOMARIN PHARMACEUTICAL INC., priority 2013, dated 2019):
# Target: T1, GCS (Canis lupus familiaris, UniProt A0A8I3MXG6)
# T1 construct: endogenous in cells; host or cells: MDCK (Madin-Darby canine kidney) cells, whole-cell lysate
# T1 sequence (A0A8I3MXG6 1-394): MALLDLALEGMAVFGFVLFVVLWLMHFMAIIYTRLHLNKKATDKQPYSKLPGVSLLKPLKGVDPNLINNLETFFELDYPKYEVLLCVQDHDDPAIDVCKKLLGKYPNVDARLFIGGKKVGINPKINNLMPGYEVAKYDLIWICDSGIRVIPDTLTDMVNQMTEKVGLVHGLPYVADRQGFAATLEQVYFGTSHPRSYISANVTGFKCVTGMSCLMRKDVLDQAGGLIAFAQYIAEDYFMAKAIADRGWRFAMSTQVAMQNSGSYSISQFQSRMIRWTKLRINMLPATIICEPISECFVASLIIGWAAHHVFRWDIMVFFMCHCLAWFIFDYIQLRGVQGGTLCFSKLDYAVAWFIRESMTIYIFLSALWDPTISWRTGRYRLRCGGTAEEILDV
# Test: GCS enzymatic assay (MDCK cell lysate, NBD-ceramide to glucosylceramide, LC/MS)
# Type: biochemical, canine
# Conditions: Table 2; class symbols A, B, C; the table does not say which of the assays; read-out: Data Range (IC50 values)
# Summary of the method: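 Dog MDCK cell lysate served as enzyme source, with NBD-ceramide turned over to glucosylceramide and 0.1% DMSO as mock control. The reaction was stopped with acetonitrile. Both lipids were quantified by LC/MS/MS in ESI positive MRM mode against a tolbutamide internal standard, giving IC50 or percent inhibition.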
row,IC50 [nM],Compound
1,1 to 30,"O=C(N[C@H](CN1CCCC1)[C@H](O)c1ccc2c(c1)OCCO2)[C@@H]1CCN(c2cccc(Oc3ccc(Cl)cc3)n2)C1 [Compound 113, (R)-1-(6-(4-chlorophenoxy)pyridin-2-yl)-N((1R,2R)-1-(2,3-dihydrobenzo[b][1,4]dioxin-6-yl)-1-hydroxy-3-(pyrrolidin-1-yl)propan-2-yl)pyrrolidine-3-carboxamide]"
2,1 to 30,"O=C(N[C@H](CN1CCCC1)[C@H](O)c1ccc2c(c1)OCCO2)C1CCN(c2ccc(F)cc2)C1 (stereo partly drawn) [Compound 24B, N-((1R,2R)-1-(2,3-dihydrobenzo[b][1,4]dioxin-6-yl)-1-hydroxy-3-(pyrrolidin-1-yl)propan-2-yl)-1-(4-fluorophenyl)pyrrolidine-3-carboxamide]"
3,1 to 30,"O=C(N[C@H](CN1CCCC1)[C@H](O)c1cc(F)c2c(c1)OCCO2)C1CCN(c2ccc(Cl)cc2)C1 (stereo partly drawn) [Compound 2A, 1-(4-chlorophenyl)-N-((1R,2R)-1-(8-fluoro-2,3-dihydrobenzo[b][1,4]dioxin-6-yl)-1-hydroxy-3-(pyrrolidin-1-yl)propan-2-yl)pyrrolidine-3-carboxamide]"
4,1 to 30,"O=C(N[C@H](CN1CCCC1)[C@H](O)c1ccc2c(c1)OCCO2)[C@@H]1CCN(c2ccc3ccccc3n2)C1 [Compound 72, (R)-N-((1R,2R)-1-(2,3-dihydrobenzo[b][1,4]dioxin-6-yl)-1-hydroxy-3-(pyrrolidin-1-yl)propan-2-yl)-1-(quinolin-2-yl)pyrrolidine-3-carboxamide]"

# The remaining lines, values behind:
row,Compound,IC50 [nM]
1,"O=C(N[C@H](CN1CCCC1)[C@H](O)c1cc(F)c2c(c1)OCCO2)[C@H]1CCN(c2ccc(F)cc2)C1 [Compound 35A, (S)-N-((1R,2R)-1-(8-fluoro-2,3-dihydrobenzo[b][1,4]dioxin-6-yl)-1-hydroxy-3-(pyrrolidin-1-yl)propan-2-yl)-1-(4-fluorophenyl)pyrrolidine-3-carboxamide]",1 to 30
2,"O=C(N[C@H](CN1CCC1)[C@H](O)c1cc(F)c2c(c1)OCCO2)[C@H]1CCN(c2ccc3cc(F)ccc3c2)C1 [Compound 47B, (S)-N-((1R,2R)-3-(azetidin-1-yl)-1-(8-fluoro-2,3-dihydrobenzo[b][1,4]dioxin-6-yl)-1-hydroxypropan-2-yl)-1-(6-fluoronaphthalen-2-yl)pyrrolidine-3-carboxamide]",30 to 100
3,"O=C(N[C@H](CN1CCCC1)[C@H](O)c1ccc(OC2CCOCC2)c(Cl)c1)[C@@H]1CCN(c2ccc3ccsc3c2)C1 [Compound 92, (R)-1-(benzo[b]thiophen-6-yl)-N-((1R,2R)-1-(3-chloro-4-((tetrahydro-2H-pyran-4-yl)oxy)phenyl)-1-hydroxy-3-(pyrrolidin-1-yl)propan-2-yl)pyrrolidine-3-carboxamide]",1 to 30
4,"O=C(N[C@H](CN1CCCC1)[C@H](O)c1ccc(OC2CC2)c(Cl)c1)[C@@H]1CCN(c2ccccn2)C1 [Compound 54, (R)-N-((1R,2R)-1-(3-chloro-4-cyclopropoxyphenyl)-1-hydroxy-3-(pyrrolidin-1-yl)propan-2-yl)-1-(pyridin-2-yl)pyrrolidine-3-carboxamide]",1 to 30
5,"Cn1ncc2ccc(N3CC[C@@H](C(=O)N[C@H](CN4CCCC4)[C@H](O)c4ccc(OC5CC5)c(Cl)c4)C3)cc21 [Compound 133, (R)-N-((1R,2R)-1-(3-chloro-4-cyclopropoxyphenyl)-1-hydroxy-3-(pyrrolidin-1-yl)propan-2-yl)-1-(1-methyl-1H-indazol-6-yl)pyrrolidine-3-carboxamide]",1 to 30
6,"O=C(N[C@H](CN1CCCC1)[C@H](O)c1ccc(OC2CC2)cc1)[C@@H]1CCN(c2ccc3cc(F)ccc3c2)C1 [Compound 162, (R)-N-((1R,2R)-1-(4-cyclopropoxyphenyl)-1-hydroxy-3-(pyrrolidin-1-yl)propan-2-yl)-1-(6-fluoronaphthalen-2-yl)pyrrolidine-3-carboxamide]",1 to 30
7,"CC(C)(C)c1ccc(N2CC[C@@H](C(=O)N[C@H](CN3CCCC3)[C@H](O)c3ccc(OC4CC4)c(Cl)c3)C2)cc1 [Compound 139, (R)-1-(4-(tert-butyl)phenyl)-N-((1R,2R)-1-(3-chloro-4-cyclopropoxyphenyl)-1-hydroxy-3-(pyrrolidin-1-yl)propan-2-yl)pyrrolidine-3-carboxamide]",30 to 100
8,"Cn1ncc2ccc(N3CC[C@@H](C(=O)N[C@H](CN4CCCC4)[C@H](O)c4cc(F)c5c(c4)OCCO5)C3)cc21 [Compound 132, (R)-N-((1R,2R)-1-(8-fluoro-2,3-dihydrobenzo[b][1,4]dioxin-6-yl)-1-hydroxy-3-(pyrrolidin-1-yl)propan-2-yl)-1-(1-methyl-1H-indazol-6-yl)pyrrolidine-3-carboxamide]",1 to 30
9,"O=C(N[C@H](CN1CCCC1)[C@H](O)c1ccc(OC2CC2)c(Cl)c1)[C@@H]1CCN(c2ccc(Cl)c(Oc3ccc(F)cc3)c2)C1 [Compound 128, (R)-1-(4-chloro-3-(4-fluorophenoxy)phenyl)-N-((1R,2R)-1-(3-chloro-4-cyclopropoxyphenyl)-1-hydroxy-3-(pyrrolidin-1-yl)propan-2-yl)pyrrolidine-3-carboxamide]",1 to 30

# Same assay, conditions: Table 2; class symbols D, E, F, NA (not active); the table does not say which of the assays
row,Data Range (% inhibition),Compound
1,E (50-74% (or less than 75%)),"O=C(N[C@H](CN1CCCC1)[C@H](O)c1ccc2c(c1)OCCO2)[C@@H]1CCN(c2ccc(OC3CC3)nc2)C1 [Compound 58, (R)-1-(6-cyclopropoxypyridin-3-yl)-N-((1R,2R)-1-(2,3-dihydrobenzo[b][1,4]dioxin-6-yl)-1-hydroxy-3-(pyrrolidin-1-yl)propan-2-yl)pyrrolidine-3-carboxamide]"
2,F (1-49% (or less than 50%)),"O=C(N[C@H](CN1CCCCC1)[C@H](O)c1ccc2c(c1)OCCO2)C1CCN(c2ccc(Cl)cc2)C1 (stereo partly drawn) [Compound 43D, 1-(4-chlorophenyl)-N-((1R,2R)-1-(2,3-dihydrobenzo[b][1,4]dioxin-6-yl)-1-hydroxy-3-(piperidin-1-yl)propan-2-yl)pyrrolidine-3-carboxamide]"
3,E (50-74% (or less than 75%)),"O=C(N[C@H](CN1CCCC1)[C@H](O)c1ccc2c(c1)OCCO2)[C@H]1CCN(c2ccc3ccccc3c2)C1 [Compound 70A, (S)-N-((1R,2R)-1-(2,3-dihydrobenzo[b][1,4]dioxin-6-yl)-1-hydroxy-3-(pyrrolidin-1-yl)propan-2-yl)-1-(naphthalen-2-yl)pyrrolidine-3-carboxamide]"
4,F (1-49% (or less than 50%)),O=C(N[C@H](CN1CCCC1)[C@H](O)c1ccc2c(c1)OCCO2)C1CCN(Cc2ccc(Cl)cc2)C1 (some centres unmarked) [Compound 15C]
5,F (1-49% (or less than 50%)),"O=C(N[C@H](CN1CCCC1)[C@H](O)c1ccc2c(c1)OCCO2)[C@H]1CCN(c2ccc(OC3CC3)nc2)C1 [Compound 58D, (S)-1-(6-cyclopropoxypyridin-3-yl)-N-((1R,2R)-1-(2,3-dihydrobenzo[b][1,4]dioxin-6-yl)-1-hydroxy-3-(pyrrolidin-1-yl)propan-2-yl)pyrrolidine-3-carboxamide]"
6,F (1-49% (or less than 50%)),"O=C(NC(CN1CCCC1)[C@H](O)c1cc(F)c2c(c1)OCCO2)[C@H]1CCN(c2ccc3ccccc3n2)C1 (stereo in doubt) [Compound 68C, (S)-N-((1R,2S)-1-(8-fluoro-2,3-dihydrobenzo[b][1,4]dioxin-6-yl)-1-hydroxy-3-(pyrrolidin-1-yl)propan-2-yl)-1-(quinolin-2-yl)pyrrolidine-3-carboxamide]"
7,F (1-49% (or less than 50%)),"O=C(N[C@H](CN1CCCC1)[C@H](O)c1ccc2c(c1)OCCO2)C1CCN(c2nc3c(s2)CCCC3)C1 (stereo partly drawn) [Compound 36F, N-((1R,2R)-1-(2,3-dihydrobenzo[b][1,4]dioxin-6-yl)-1-3-hydroxy-(pyrrolidin-1-yl)propan-2-yl)-1-(4,5,6,7-tetrahydrobenzo[d]thiazol-2-yl)pyrrolidine-3-carboxamide]"

# The next lines start with the molecule.
row,Compound,Data Range (% inhibition)
1,"O=C(N[C@H](CN1CCCC1)[C@H](O)c1ccc2c(c1)OCCO2)[C@H]1CCN(C2CCOCC2)C1 [Compound 9E, (S)-N-((1R,2R)-1-(2,3-dihydrobenzo[b][1,4]dioxin-6-yl)-1-hydroxy-3-(pyrrolidin-1-yl)propan-2-yl)-1-(tetrahydro-2H-pyran-4-yl)pyrrolidine-3-carboxamide]",NA (not active—a negative value was generated for % inhibition)
2,"CN1CCc2ccc(N3CC[C@H](C(=O)N[C@H](CN4CCCC4)[C@H](O)c4ccc5c(c4)OCCO5)C3)cc2C1 [Compound 63D, (S)-N-((1R,2R)-1-(2,3-dihydrobenzo[b][1,4]dioxin-6-yl)-1-hydroxy-3-(pyrrolidin-1-yl)propan-2-yl)-1-(2-methyl-1,2,3,4-tetrahydroisoquinolin-7-yl)pyrrolidine-3-carboxamide]",NA (not active—a negative value was generated for % inhibition)
3,"O=C(N[C@H](CN1CCC1)[C@H](O)c1ccc(OC2CC2)c(Cl)c1)[C@@H]1CCN(c2ccc3cc(F)ccc3c2)C1 [Compound 95, (R)-N-((1R,2R)-3-(azetidin-1-yl)-1-(3-chloro-4-cyclopropoxyphenyl)-1-hydroxypropan-2-yl)-1-(6-fluoronaphthalen-2-yl)pyrrolidine-3-carboxamide]",D (75-100%)
